# According to ChEMBL document CHEMBL1201862, “PubChem BioAssay data set” (2004):
#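 Step 1: Grow cells in 96-well plates. Step 2: Expose to compound for 48 hours at 5 concentrations. Step 3: Interpolate endpoints linearly; if unreached, use highest concentration. GI50 marks 50% less growth.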 Calls of active or inactive are those of the source. No stated cut-off is given here; in the data, active = GI50 up to about 1.1 µM and inactive = higher.
# Tests used:
# Test in all cases: growth of human tumour cells (NCI), 48 h
# DMS-114 = system: DMS-114
# HOP-18 = system: HOP-18
# UACC-62 = system: UACC-62
# CAKI-1 = system: CAKI-1
# NCI-H522 = system: NCI-H522
# SK-MEL-5 = system: SK-MEL-5
# A498 = system: A498
# SW-620 = system: SW-620
# NCI-H23 = system: NCI-H23
# ACHN = system: ACHN
# SNB-19 = system: SNB-19
# NCI-H226 = system: NCI-H226
# UO-31 = system: UO-31
# HCT-15 = system: HCT-15
# HL-60 = system: HL-60
# SNB-75 = system: SNB-75
# NCI-H460 = system: NCI-H460
# HCT-116 = system: HCT-116
# M14 = system: M14
# RPMI-8226 = system: RPMI-8226
# DMS-273 = system: DMS-273
# OVCAR-3 = system: OVCAR-3
# SN12C = system: SN12C
# HCC 2998 = system: HCC 2998
# HOP-92 = system: HOP-92
# EKVX = system: EKVX
# SF-268 = system: SF-268
# M19-MEL = system: M19-MEL
# OVCAR-5 = system: OVCAR-5
# SNB-78 = system: SNB-78
# KM-20L2 = system: KM-20L2
# U-251 = system: U-251
# HT-29 = system: HT-29
# Malme-3M = system: Malme-3M
# K562 = system: K562
# COLO 205 = system: COLO 205
# OVCAR-8 = system: OVCAR-8
# SK-MEL-2 = system: SK-MEL-2
# DLD-1 = system: DLD-1
# IGROV-1 = system: IGROV-1
# LXFL 529 = system: LXFL 529
# 786-0 = system: 786-0
# SK-MEL-28 = system: SK-MEL-28
# HOP-62 = system: HOP-62
# SF-295 = system: SF-295
# XF498 = system: XF498
# KM12 = system: KM12
# UACC-257 = system: UACC-257
# OVCAR-4 = system: OVCAR-4
# SF-539 = system: SF-539
# A549 = system: A549
# CCRF-CEM = system: CCRF-CEM
# SK-OV-3 = system: SK-OV-3
# TK-10 = system: TK-10
# MOLT-4 = system: MOLT-4
smiles,measurement,setting,value
COc1ccc2c3c([nH]c2c1[N+](=O)[O-])C(C)N(C)CC3 (stereo not given),GI50,DMS-114,> 100 µM (inactive)
same,GI50,HOP-18,19.4 µM (inactive)
same,GI50,UACC-62,> 100 µM (inactive)
same,GI50,CAKI-1,36.6 µM (inactive)
same,GI50,NCI-H522,> 100 µM (inactive)
same,GI50,SK-MEL-5,49.5 µM (inactive)
same,GI50,A498,> 100 µM (inactive)
same,GI50,SW-620,29.6 µM (inactive)
same,GI50,NCI-H23,> 100 µM (inactive)
same,GI50,ACHN,> 100 µM (inactive)
same,GI50,SNB-19,> 100 µM (inactive)
same,GI50,NCI-H226,> 100 µM (inactive)
same,GI50,UO-31,76.2 µM (inactive)
same,GI50,HCT-15,80.4 µM
same,GI50,HL-60,39.6 µM (inactive)
same,GI50,SNB-75,72.3 µM (inactive)
same,GI50,NCI-H460,> 100 µM (inactive)
same,GI50,HCT-116,> 100 µM (inactive)
same,GI50,M14,> 100 µM (inactive)
same,GI50,RPMI-8226,77.4 µM (inactive)
same,GI50,DMS-273,> 100 µM (inactive)
same,GI50,OVCAR-3,> 100 µM (inactive)
same,GI50,SN12C,> 100 µM (inactive)
same,GI50,HCC 2998,> 100 µM (inactive)
same,GI50,HOP-92,34 µM (inactive)
same,GI50,EKVX,> 100 µM (inactive)
same,GI50,SF-268,> 10 µM (inactive)
same,GI50,M19-MEL,> 100 µM (inactive)
same,GI50,OVCAR-5,> 100 µM (inactive)
same,GI50,SNB-78,> 100 µM (inactive)
same,GI50,KM-20L2,62.4 µM (inactive)
same,GI50,U-251,> 100 µM (inactive)
same,GI50,HT-29,18.9 µM (inactive)
same,GI50,Malme-3M,> 100 µM (inactive)
same,GI50,K562,18.1 µM (inactive)
same,GI50,COLO 205,50.4 µM (inactive)
same,GI50,OVCAR-8,> 100 µM (inactive)
same,GI50,SK-MEL-2,> 100 µM (inactive)
same,GI50,DLD-1,> 100 µM (inactive)
same,GI50,IGROV-1,> 100 µM (inactive)
same,GI50,LXFL 529,69 µM (inactive)
same,GI50,786-0,> 100 µM (inactive)
same,GI50,SK-MEL-28,> 100 µM (inactive)
same,GI50,HOP-62,> 100 µM (inactive)
same,GI50,SF-295,62.8 µM (inactive)
same,GI50,XF498,> 100 µM (inactive)
same,GI50,KM12,51.6 µM (inactive)
same,GI50,UACC-257,> 100 µM (inactive)
same,GI50,OVCAR-4,38 µM (inactive)
same,GI50,SF-539,> 100 µM (inactive)
same,GI50,A549,> 100 µM (inactive)
same,GI50,CCRF-CEM,32.4 µM (inactive)
same,GI50,SK-OV-3,> 100 µM (inactive)
same,GI50,TK-10,> 100 µM (inactive)
same,GI50,MOLT-4,51.6 µM (inactive)
